Data: US20210315840A1, “SOLID ORAL DOSAGE FORMS OF KETAMINE DERIVATIVES” (priority 2017, published 2021)
“Also recorded” adds a separate entry of the source. Read-outs that look alike come from different tables or passages of the source.

How the values were obtained:
mouse = assay: Progressive ratio test in the mouse
[1] = dose matched to 300 mg/kg 2R,6R-HNK
[2] = 300 mg/kg IP daily for 4 days, listed as 2R,6R-HNK
[3] = 300 mg/kg, replication after 3-week wash-out, listed as 2R,6R-HNK

With `O=C1CC[C@@H](C(=O)[O-])N1.[Na+]` [NaPg, sodium L-pyroglutamate, reference compound] the any measure examined (mouse; [1]) was “did not significantly affect” and the “breakpoint compared to vehicle controls” value (mouse; [1]) was “did not increase”.

In the case of `CC(C)NCC(O)COc1cccc2ccccc12` (stereo not shown) [Propranolol, reference compound], the “Papp Replicate 1” value (Caco-2; Direction = A2B) is reported as 26.0 10^−6 cms^−1, the “Papp Replicate 2” value (Caco-2; Direction = A2B) is reported as 27.4 10^−6 cms^−1 and the “Papp Replicate 1” value (Caco-2; Direction = B2A) is reported as 27.0 10^−6 cms^−1. For the same molecule, the “Papp Replicate 2” value (Caco-2; Direction = B2A) was 26.2 10^−6 cms^−1.

`N[C@@]1(c2ccccc2Cl)CCC[C@@H](O)C1=O` [2R,6R-hydroxynorketamine L-pyroglutamate] was tested, and the “average responses per minute, higher compared with vehicle” value (mouse; 300 mg/kg IP) was 29%, the “number of target touches compared to ketamine and vehicle groups” value (mouse; 300 mg/kg IP daily for 4 days) was “significant increase” and the “breakpoint compared to vehicle and ketamine” value (mouse; 300 mg/kg IP daily for 4 days, tested 20 minutes after injection) was “significant increase”. For the same molecule, the “% of correct touches” value (mouse; [2]) was “significant increase; also recorded: significantly increased”, the “ratio of target touches to blank touches” value (mouse; [2]) was “significant increase; also recorded: significantly increased” and the “rate of responding (running rate) compared to ketamine and vehicle groups” value (mouse; 300 mg/kg IP, 60 minute test session) was “higher rate of responding”. For the same molecule, the “predicted peak responding (running rate coefficient)” value (mouse; 300 mg/kg IP, p=0.12) was “trend toward a main effect of drug”, the “average responses per minute, higher compared with ketamine” value (mouse; 300 mg/kg IP, ketamine 10 mg/kg) was 59% and the “breakpoint compared to vehicle and ketamine” value (mouse; 300 mg/kg, replication after 3-week wash-out) was “significant increase”. For the same molecule, the “% of correct touches” value (mouse; [3]) was “significant increase; also recorded: increased”, the “number of target touches” value (mouse; [3]) was “significant increase; also recorded: increased” and the “ratio of target touches to blank touches” value (mouse; [3]) was “significant increase; also recorded: increased”. For the same molecule, the cognitive measures (mouse; doses below 30 mg/kg) was “No increase”.
